How the values were obtained:
Phytophtora cinnamomi = assay: Avocado test; assay type: in vivo; settings: soil sprayed with 3 g/l solution, after 20 days
Excerpt: Avocado seedlings (variety Persea indica) are planted in a soil infested with Phytophtora cinnamomi, after which the soil is sprayed with a solution containing 3 g/l of ammonium phosphite. Some seedlings are left untreated as controls. Under these conditions, it is found after 20 days that the roots of the controls are completely dead, whilst 90% of the treated seedlings are healthy.

Solubility in water = assay type: physicochemical
Plasmopara viticola [1] = assay: In vivo test on vine plants, preventive treatment; settings: 0.5 g/l, leaves sprayed 48 hours before contamination, inspected 9 days after infestation
Piricularia oryzae = assay type: cell-based; settings: 0.25 g/l, 4 days at 20° C
Plasmopara viticola [2] = assay: In vivo test on vine plants, treatment after contamination; settings: 1 g/l, inspected 9 days after contamination
Botrytis cinerea = assay: In vitro test on mycelian growth (Agar Plate dilution), Botrytis; assay type: cell-based; settings: 0.25 g/l, 4 days at 20° C
Protocol: (§1) In vitro Test on Mycelian Growth
(§2) The compounds according to the invention are studied for their effect on the mycelian growth of the following fungi:
Botrytis cinerea, responsible for grey rot
(§3) The "Agar Plate dilution" method is used for each test. A mixture of gelose and an acetone solution or a wettable powder containing the material to be tested in a concentration of 0.25 g/l is poured into a Petri dish at a temperature of approximately 50° C.
(§4) The gelose-containing mixture is then allowed to solidify, after which mycelian culture discs of the fungus are placed on it.
(§5) After 4 days at 20° C., the surface area of the inhibition zone observed is evaluated and expressed as a percentage of the inoculated surface area.

Rhizoctonia solani = assay: In vitro test on mycelian growth (Agar Plate dilution), Rhizoctonia; assay type: cell-based; settings: 0.25 g/l, 4 days at 20° C
Protocol: as §1, §2
Rhizoctonia solani, responsible for neck canker
as §3, §4, §5

Plasmopara viticola [3] = assay: Systemic test by root absorption on vine mildew; assay type: in vivo; settings: 0.5 g/l, absorbed by the roots, assessed after about 9 days
Plasmopara viticola [4] = assay: Open-air test on vine stocks; assay type: in vivo; settings: 2 g/l
Protocol: Groups of vine stocks (Gamay variety) are treated on the 27th June, 4th, 11th and 18th July, 1st and 7th August, with a spray of wettable powder containing 50% of an active material, namely compound 13 and manganese ethylene-1,2-bis-dithiocarbamate or manebe.
It should be noted that, in August and September, the mildew Plasmopara viticola was extremely virulent on account of heavy rainfall. For a uniform dose of 2 g/l, the results are expressed as percentage protection in relation to a contaminated but untreated control.

Pythium de Baryanum = assay: In vitro test on mycelian growth (Agar Plate dilution), Pythium; assay type: cell-based; settings: 0.25 g/l, 4 days at 20° C
Protocol: as §1, §2, §3, §4, §5

Phytophtora parasitica = assay: Pineapple test; assay type: in vivo; settings: 0.5 g/l spray 48 hours after contamination, after 30 days
Protocol: Pineapple seedlings are contaminated with Phytophtora parasitica and then treated after 48 hours by spraying with a solution containing 0.5 g/l of calcium phosphite.

[5] = inspection date 2/10 (approx. 2 months after last treatment)
[6] = inspection date 3/9 (approx. 1 month after last treatment)
[7] = inspection date 20/10 (approx. 2.5 months after last treatment)

Compound | protection (preventive treatment) (Plasmopara viticola [1]) | stop of the development of mildew (treatment after contamination) (Plasmopara viticola [2]) | protection by root absorption (systemic) (Plasmopara viticola [3]) | also measured
N.N.O.O=[P+](O)O [ammonium phosphite] |  |  |  | treated seedlings healthy (Phytophtora cinnamomi): 90%
CC(C)c1cccc(N)c1 [Compound 27] | good protection |  |  | solubility in water (Solubility in water): insoluble
neutral nickel (II)phosphite [Compound 14] | total protection | completely stop the development of mildew |  | inhibition of mycelian growth (inhibition zone as percentage of the inoculated surface area) (Piricularia oryzae): 59%; inhibition of mycelian growth (inhibition zone as percentage of the inoculated surface area) (Botrytis cinerea): 48%; inhibition of mycelian growth (inhibition zone as percentage of the inoculated surface area) (Rhizoctonia solani): 78%
NC1CCCCC1 [Compound 23] |  |  | good protection | solubility in water (Solubility in water): insoluble
O=[PH]([O-])[O-].O=[PH]([O-])[O-].O=[PH]([O-])[O-].[Al+3].[Al+3] [Compound 19, neutral aluminium phosphite] | total protection |  | total protection | 
trivalent iron phosphite [Compound 15] | good protection |  |  | 
Nc1ccccc1 [Compound 22] | good protection | completely stop the development of mildew | total protection | solubility in water (Solubility in water): insoluble
S=C([S-])NCCNC(=S)[S-].[Mn+2] [Manebe, manganese ethylene-1,2-bis-dithiocarbamate, reference compound] |  |  |  | percentage protection in relation to contaminated untreated control (Plasmopara viticola [4]; [5]): 62%; percentage protection in relation to contaminated untreated control (Plasmopara viticola [4]; [6]): 96%; percentage protection in relation to contaminated untreated control (Plasmopara viticola [4]; [7]): 15%
O=[PH]([O-])[O-].[Ba+2] [Compound 12, neutral barium phosphite] | total protection |  | total protection | 
CC(C)c1ccc(N)cc1 [Compound 26] | good protection | completely stop the development of mildew |  | solubility in water (Solubility in water): insoluble
NCCO.O=[PH](O)O [Compound 8, acid monoethanolamine phosphite] |  |  |  | inhibition of mycelian growth (inhibition zone as percentage of the inoculated surface area) (Rhizoctonia solani): 60%; inhibition of mycelian growth (inhibition zone as percentage of the inoculated surface area) (Pythium de Baryanum): 51%
O=[PH](O)O.c1c[nH]cn1 [Compound 21, acid phosphite of 1,3-imidazole] | good protection | completely stop the development of mildew | total protection | 
C1COCCN1 [Compound 25] | good protection | completely stop the development of mildew | total protection | solubility in water (Solubility in water): insoluble
manganous phosphite [Compound 16] | total protection | completely stop the development of mildew |  | 
neutral copper(II)phosphite [Compound 13] | total protection |  | good protection | percentage protection in relation to contaminated untreated control (Plasmopara viticola [4]; [5]): 66%; percentage protection in relation to contaminated untreated control (Plasmopara viticola [4]; [6]): 94%; percentage protection in relation to contaminated untreated control (Plasmopara viticola [4]; [7]): 50%
O=[PH]([O-])[O-].[Mg+2] [Compound 18, neutral magnesium phosphite] | good protection |  |  | 
calcium phosphite |  |  |  | inhibition of the fungus in treated seedlings (Phytophtora parasitica): completely inhibited
O=[PH]([O-])[O-].[Ca+2] [Compound 10, neutral calcium phosphite] | total protection |  | good protection | 
cuprous phosphite [Compound 20] | total protection |  |  | 
O=[PH]([O-])[O-].[Zn+2] [Compound 17, neutral zinc(II)phosphite] | total protection | completely stop the development of mildew | total protection | 

From patent publication US4119724A, “Fungicidal compositions containing phosphorous acid and derivatives thereof” (Pepro, priority 1973, dated 1978)
